Reference: US7323485B2, “4-(substituted cycloalkylmethyl) imidazole-2-thiones, 4-(substituted cycloalkenylmethyl) imidazole-2-thiones, 4-(substituted cycloalkylmethyl) imidazol-2-ones and 4-(substituted cycloalkenylmethyl) imidazol-2-ones and related compounds” (Allergan, Inc., priority 2002, dated 2008)

How the values were obtained:
[1] = biological target: T1, alpha2C adrenergic receptors (Homo sapiens, UniProt P18825); assay: Receptor Selection and Amplification Technology (RSAT) assay, alpha2C; type: cell-based; settings: for EC50: NA = not active at concentrations less than 10 micromolar, read-out: Alpha 2C EC50; for Alpha 2C intrinsic activity: fraction of maximal effect of standard full agonist brimonidine (UK14304)
T1 construct: expressed in transfected cells; host or cells: NIH-3T3
T1 sequence (P18825 1-462): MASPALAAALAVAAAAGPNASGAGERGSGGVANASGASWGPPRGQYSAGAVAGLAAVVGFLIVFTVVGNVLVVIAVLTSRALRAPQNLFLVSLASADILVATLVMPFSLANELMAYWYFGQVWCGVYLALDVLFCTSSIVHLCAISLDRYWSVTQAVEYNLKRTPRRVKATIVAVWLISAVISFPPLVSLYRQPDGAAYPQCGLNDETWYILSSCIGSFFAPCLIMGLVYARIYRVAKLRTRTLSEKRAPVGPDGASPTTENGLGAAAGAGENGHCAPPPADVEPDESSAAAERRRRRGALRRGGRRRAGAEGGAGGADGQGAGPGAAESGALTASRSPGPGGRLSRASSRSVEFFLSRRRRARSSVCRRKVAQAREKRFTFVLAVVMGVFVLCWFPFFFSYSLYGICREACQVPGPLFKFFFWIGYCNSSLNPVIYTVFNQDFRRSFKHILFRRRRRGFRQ
From the text: (§1) The imidazole-2-thione compounds of the invention are agonists of alpha2 adrenergic receptors, particularly they tend to be specific or selective agonists of alpha2B and/or to a lesser extent alpha2C adrenergic receptors, in preference over alpha2A adrenergic receptors. […] Al., 1995, Pharmacol. Toxicol. 76, pp. 308-311 (incorporated herein by reference) and is also described below. Another reference pertinent to this assay is Conklin et al. (1993) Nature 363:274-6, also incorporated herein by reference.
(§2) Receptor Selection and Amplification Technology (RSAT) Assay
(§3) The RSAT assay measures a receptor-mediated loss of contact inhibition that results in selective proliferation of receptor-containing cells in a mixed population of confluent cells. The increase in cell number is assessed with an appropriate transfected marker gene such as β-galactosidase, the activity of which can be easily measured in a 96-well format. Receptors that activate the G protein, Gq, elicit this response. Alpha2 receptors, which normally couple to Gi, activate the RSAT response when coexpressed with a hybrid Gq protein that has a Gi receptor recognition domain, called Gq/i5.
(§4) NIH-3T3 cells are plated at a density of 2×10^6 cells in 15 cm dishes and maintained in Dulbecco's modified Eagle's medium supplemented with 10% calf serum. One day later, cells are cotransfected by calcium phosphate precipitation with mammalian expression plasmids encoding p-SV-β-galactosidase (5-10 μg), receptor (1-2 μg) and G protein (1-2 μg). 40 μg salmon sperm DNA may also be included in the transfection mixture. Fresh media is added on the following day and 1-2 days later, cells are harvested and frozen in 50 assay aliquots. Cells are thawed and 100 μl added to 100 μl aliquots of various concentrations of drugs in triplicate in 96-well dishes. Incubations continue 72-96 hr at 37 EC. After washing with phosphate-buffered saline, β-galactosidase enzyme activity is determined by adding 200 μl of the chromogenic substrate (consisting of 3.5 mM o-nitrophenyl-β-D-galactopyranoside and 0.5% nonidet P-40 in phosphate buffered saline), incubating overnight at 30 EC and measuring optical density at 420 nm. The absorbance is a measure of enzyme activity, which depends on cell number and reflects a receptor-mediated cell proliferation. The EC50 and maximal effect of each drug at each alpha2 receptor is determined. The efficacy or intrinsic activity is calculated as a ratio of the maximal effect of the drug to the maximal effect of a standard full agonist for each receptor subtype. Brimonidine, also called UK14304, the chemical structure of which is shown below, is used as the standard agonist for the alpha2A, alpha2B and alpha2C receptors.
(§5) The results of the RSAT assay with several exemplary compounds of the invention are disclosed in Table 1 above together with the chemical formulas of these examplary compounds. […] NA stands for “not active” at concentrations less than 10 micromolar. As is known EC50 is the concentration at which half of a given compound's maximal activity is observed.

[2] = biological target: T2, alpha2B adrenergic receptors (Homo sapiens, UniProt P18089); assay: Receptor Selection and Amplification Technology (RSAT) assay, alpha2B; type: cell-based; settings: for EC50: NA = not active at concentrations less than 10 micromolar, read-out: Alpha 2B EC50; for Alpha 2B intrinsic activity: fraction of maximal effect of standard full agonist brimonidine (UK14304)
T2 construct: expressed in transfected cells; host or cells: NIH-3T3
T2 sequence (P18089 1-450): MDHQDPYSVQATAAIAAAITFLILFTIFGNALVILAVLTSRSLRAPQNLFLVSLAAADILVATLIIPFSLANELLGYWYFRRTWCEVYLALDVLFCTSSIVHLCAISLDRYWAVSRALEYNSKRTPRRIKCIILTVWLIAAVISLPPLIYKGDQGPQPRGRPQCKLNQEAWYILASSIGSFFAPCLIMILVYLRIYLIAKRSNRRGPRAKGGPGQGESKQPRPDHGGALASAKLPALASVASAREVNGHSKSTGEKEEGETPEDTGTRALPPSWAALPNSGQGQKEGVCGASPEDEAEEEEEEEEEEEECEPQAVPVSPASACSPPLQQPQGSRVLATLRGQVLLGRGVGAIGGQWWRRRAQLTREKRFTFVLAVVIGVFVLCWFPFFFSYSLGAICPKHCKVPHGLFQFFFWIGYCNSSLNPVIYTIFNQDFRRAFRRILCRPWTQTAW
From the text: as §1, §2, §3, §4, §5

| SMILES | EC50 [1] | EC50 [2] | Alpha 2C intrinsic activity [1] | Alpha 2B intrinsic activity [2] |
| --- | --- | --- | --- | --- |
| Cc1cccc2c1CC(c1c[nH]c(=S)[nH]1)C2 (stereo not drawn) | 13 nM | 3 nM | 0.62 | 0.99 |
| Fc1cc2c(cc1F)C(Cc1c[nH]c(=S)[nH]1)CC2 (stereo not drawn) | 662 nM | 354 nM | 0.38 | 0.363 |
| CC1CC(Cc2c[nH]c(=S)[nH]2)c2ccccc21 (stereo not drawn) | 1020 nM | 33 nM | 1.39 | 1.01 |
| S=c1[nH]cc(C2CCc3ccccc3CC2)[nH]1 |  | 17 nM |  | 0.82 |
| Fc1cc(F)c2c(c1)CC(c1c[nH]c(=S)[nH]1)C2 (stereo not drawn) |  | 6.5 nM |  | 0.81 |
| Fc1ccc2c(c1)CC(c1c[nH]c(=S)[nH]1)C2 (stereo not drawn) |  | 30 nM |  | 0.75 |
| N#C/C=C1/c2ccccc2CCC1Cc1c[nH]c(=S)[nH]1 (stereo not drawn) |  | 990 nM |  | 0.5 |
| COc1cc(F)c2c(c1)CC(c1c[nH]c(=S)[nH]1)C2 (stereo not drawn) |  | 22 nM |  | 1.02 |
| O=C1C2=C(CCCC2)CCC1Cc1c[nH]c(=S)[nH]1 (stereo not drawn) |  | 815 nM |  | 0.83 |
| CCC1=C(C)CCC(Cc2c[nH]c(=S)[nH]2)C1 (stereo not drawn) |  | 6 nM |  | 1.08 |
| S=c1[nH]cc(CC2CCC3=C(CCCC3)C2)[nH]1 (stereo not drawn) |  | 86 nM |  | 0.78 |
| O=C1c2cccnc2CCC1Cc1c[nH]c(=S)[nH]1 (stereo not drawn) |  | 720 nM |  | 0.6 |
| Cc1ccc(C)c2c1CCC2Cc1c[nH]c(=S)[nH]1 (stereo not drawn) |  | 105 nM |  | 0.64 |
| S=c1[nH]cc(C[C@@H]2CCC3=C(CCCC3)C2)[nH]1 |  | 60 nM |  | 0.73 |
| CCC1=CCC(Cc2c[nH]c(=S)[nH]2)CC1 (stereo not drawn) |  | 451 nM |  | 0.68 |
| S=c1[nH]cc(C2Cc3ccc(Cl)cc3C2)[nH]1 (stereo not drawn) |  | 57.5 nM |  | 0.85 |

| SMILES | EC50 [1] | EC50 [2] | Alpha 2C intrinsic activity [1] | Alpha 2B intrinsic activity [2] |
| --- | --- | --- | --- | --- |
| S=c1[nH]cc(CC2CCc3ccccc3C2)[nH]1 (stereo not drawn) |  | 17 nM |  | 0.65 |
| C[C@@H]1c2ccccc2C[C@H]1c1c[nH]c(=S)[nH]1 |  | 5 nM |  | 1.03 |
| C#CC1=CCC(Cc2c[nH]c(=S)[nH]2)CC1 (stereo not drawn) |  | 265 nM |  | 0.60 |
| N#C/C=C1\c2ccccc2CCC1Cc1c[nH]c(=S)[nH]1 (stereo not drawn) |  | 160 nM |  | 0.94 |
| S=c1[nH]cc(C2Cc3ccccc3C2)[nH]1 |  | 6 nM |  | 0.98 |
| CC1=CCC(Cc2c[nH]c(=S)[nH]2)CC1 (stereo not drawn) |  | 61 nM |  | 0.72 |
| S=c1[nH]cc(CC2CCc3ncccc3C2)[nH]1 (stereo not drawn) |  | 1590 nM |  | 0.74 |
| O=C1c2ccc(O)cc2CCC1Cc1c[nH]c(=S)[nH]1 (stereo not drawn) |  | 1010 nM |  | 0.48 |
| S=c1[nH]cc(C[C@H]2CCc3ccccc3C2)[nH]1 |  | 395 nM |  | 0.41 |
| S=c1[nH]cc(CC2Cc3ccccc3C2)[nH]1 |  | 110 nM |  | 0.65 |
| CC1=C(C)CC(Cc2c[nH]c(=S)[nH]2)CC1 (stereo not drawn) |  | 25 nM |  | 0.61 |
| S=c1[nH]cc(C[C@@H]2CCc3ccccc3C2)[nH]1 |  | 13.7 nM |  | 0.93 |
| CC1=CC(Cc2c[nH]c(=S)[nH]2)CC1 (stereo not drawn) |  | 81 nM |  | 0.81 |
| S=c1[nH]cc(CC2CCc3sccc3C2)[nH]1 (stereo not drawn) [drawing 22] |  | 14 nM |  | 0.74 |
| CC1=CCC(Cc2c[nH]c(=S)[nH]2)OC1 (stereo not drawn) |  | 469 nM |  | 0.87 |

The next lines start with the values.

| EC50 [1] | EC50 [2] | Alpha 2C intrinsic activity [1] | Alpha 2B intrinsic activity [2] | SMILES |
| --- | --- | --- | --- | --- |
| 92 nM | 21 nM |  |  | CC1=C(c2ccc([N+](=O)[O-])cc2)C(Cc2c[nH]c(=S)[nH]2)CC1 (stereo not drawn) |
| 34.5 nM | 22.5 nM | 0.82 | 0.97 | CC1=C(c2ccc(F)cc2)C(Cc2c[nH]c(=S)[nH]2)CCC1 (stereo not drawn) |
|  | 1470 nM |  | 0.66 | Fc1cccc(C2=CCC[C@@H]2Cc2c[nH]c(=S)[nH]2)c1 |
| 2760 nM | 1100 nM | 0.75 | 0.69 | S=c1[nH]cc(CC2CCC=C2c2ccc(Cl)s2)[nH]1 (stereo not drawn) |
|  | 834 nM |  | 0.54 | Fc1ccc2c(c1F)CCC2Cc1c[nH]c(=S)[nH]1 (stereo not drawn) |
| 994 nM |  | 0.53 |  | Fc1ccccc1C1=CCCC1Cc1c[nH]c(=S)[nH]1 (stereo not drawn) |
| 715 nM |  | 0.61 |  | Fc1ccc(C2=CCC[C@H]2Cc2c[nH]c(=S)[nH]2)cc1 |
| 191 nM |  | 0.45 |  | Fc1cccc(C2=CCCC2Cc2c[nH]c(=S)[nH]2)c1 (stereo not drawn) |
|  | 269 nM |  | 0.79 | CC(C)C1=C(c2ccc(F)cc2)C(Cc2c[nH]c(=S)[nH]2)CC1 (stereo not drawn) |
|  | 41 nM |  | 0.83 | O=C1c2ccccc2CC[C@H]1Cc1c[nH]c(=S)[nH]1 |
|  | 286 nM |  | 1.16 | S=c1[nH]cc(CC2CCSc3ccccc32)[nH]1 (stereo not drawn) |
|  | 31.3 nM |  | 0.91 | S=c1[nH]cc(CC2CCc3c(Cl)cccc32)[nH]1 (stereo not drawn) |
|  | 1150 nM |  | 0.37 | S=c1[nH]cc(CC2CCc3cc(Cl)ccc32)[nH]1 (stereo not drawn) |
| 430 nM |  | 0.38 |  | Fc1ccc(F)c(C2=CCCC2Cc2c[nH]c(=S)[nH]2)c1 (stereo not drawn) |
|  | 115 nM |  | 0.99 | O=C1c2c(Cl)cccc2CCC1Cc1c[nH]c(=S)[nH]1 (stereo not drawn) |
|  | 74 nM |  | 0.78 | S=c1[nH]cc(CC2CCCc3cccc(Cl)c32)[nH]1 (stereo not drawn) |
|  | 18 nM |  | 1.0 | O=C1c2ccccc2CCC1Cc1c[nH]c(=S)[nH]1 (stereo not drawn) |
|  | 34.5 nM |  | 0.93 | Fc1cccc2c1CCC2Cc1c[nH]c(=S)[nH]1 (stereo not drawn) |
|  | 106 nM |  | 0.97 | O=C1c2ccsc2CCC1Cc1c[nH]c(=S)[nH]1 (stereo not drawn) |
|  | 92 nM |  | 0.79 | O=C1c2ccccc2CC[C@@H]1Cc1c[nH]c(=S)[nH]1 |
|  | 300 nM |  | 0.76 | O=C1c2ccc(F)cc2CCC1Cc1c[nH]c(=S)[nH]1 (stereo not drawn) |
| 241 nM |  | 0.66 |  | Fc1cc(F)cc(C2=CCCC2Cc2c[nH]c(=S)[nH]2)c1 (stereo not drawn) |
|  | 850 nM |  | 0.71 | O=C1c2ccccc2CC1Cc1c[nH]c(=S)[nH]1 (stereo not drawn) |
| 214 nM |  | 0.68 |  | S=c1[nH]cc(CC2CCC=C2c2ccccc2)[nH]1 (stereo not drawn) |
